Read-outs that look alike come from different tables or passages of the source.
System: skin of hairless mice
Details: topical in acetone, once daily days 1 through 5, mean ±SD, range 0-21
Excerpt: This irritation is a direct result of activation of the RAR nuclear receptors. Analysis of retinoid topical irritation is also a highly reproducible method of determining in vivo retinoid potency. The SKH1-hrBR or hairless mouse provides a convenient animal model of topical irritation, since retinoid-induced skin flaking and abrasion can be readily scored by eye (Standeven et al., “Specific antagonist of retinoid toxicity in mice.” Toxicol. Appl. Pharmacol. 138:169-175, (1996); Thacher, et al., “Receptor specificity of retinoid-induced hyperplasia. Effect of RXR-selective agonists and correlation with topical irritation”. J. Pharm. Exp. Ther., 282:528-534, (1997)).
Female hairless mice (Crl:SKH1-hrBR), 5-7 weeks old, were obtained from Charles River Breeding Labs (Wilmington, Mass.). Animals were about 6 weeks old at the start of the experiments. Food (Purina Rodent Chow 5001) and reverse osmosis water were provided ad libitum. Mice were housed individually throughout the dosing period. In some experiments, mice that fit within a defined weight range, e.g., 21-25 g, were selected from the available stock and then randomly assigned to the various treatment groups, using body weight as the randomization variable.
The compounds to be tested were dissolved in acetone for application to the backs of the mice.
Mice were treated topically on the back in a volume of 4.0 ml/kg (0.07-0.12 ml) adjusted daily so as to deliver a fixed dose of test compound per g body weight. Doses are disclosed as nmol/25 g.
The mice were weighed daily and the dorsal skin was graded daily using separate semi-quantitative scales to determine flaking and abrasion. These flaking and abrasion scores were combined with weight change (if any) to create a cutaneous toxicity score (Blackjack score).
A visual grading scale was used for characterizing topical irritation on a daily basis. The grading scale used is as follows:
The flaking and abrasion observations were combined with body weight observations to calculate a single, semiquantitative topical or cutaneous “toxicity score” as detailed below. The toxicity score (also known as “blackjack score” since the theoretical maximum is 21) takes into account the maximal severity, and the time of onset of skin flaking and abrasions and the extent of weight between the first and last days of the experiment. Below are listed the seven numerical components of the toxicity score and an explanation of how those values are combined to calculate the toxicity score.
Flaking onset score (2) and average severity score (3) are summed and divided by two. The quotient is added to the maximal severity score (1). Composite flaking scores are calculated for each individual animal in a group, averaged, and rounded to the nearest integer. Values can range from 0-9.
Abrasion onset score (5) and average severity score (6) are summed and divided by two. The quotient is added to the maximal severity score (4). Composite abrasion scores are calculated for each individual animal in a group, averaged and rounded to the nearest integer. Values can range from 0-8.
Composite flaking score, composite abrasion score, and systemic toxicity score are summed to give the “toxicity score.” Toxicity scores are calculated for each individual animal in a group, averaged, and rounded to the nearest integer. Values can range from 0-21 and are expressed in Table 1A below as the mean ±SD of the values for a group.

Row | SMILES | Cutaneous Toxicity Score (Blackjack Score) (100 nmole (nmol/25 g)) | Cutaneous Toxicity Score (Blackjack Score) (300 nmole (nmol/25 g)) | Cutaneous Toxicity Score (Blackjack Score) (1000 nmole (nmol/25 g))
1 | CCN(Cc1ccc(C#Cc2ccc(CC(=O)O)cc2)cc1C)C1CC1 [Compound 131] | 1 ± 1 | 0 ± 1 | 1 ± 1
2 | CC1(C)CCC(=O)c2ccc(C#Cc3ccc(CC(=O)O)c(F)c3)cc21 [Compound 15, [2-Fluoro-4-(8.8-dimethyl-5-oxo-5,6,7,8-tetrahydro-naphthalene-2-yl-ethynyl)phenyl]-acetic acid] | 1 ± 1 |  | 5 ± 2

From patent publication US20030186947A1, “Compounds having activity as inhibitors of cytochrome P450RAI” (priority 2000, published 2003)
